Data as given in ChEMBL document CHEMBL3044820, “Evaluation of Benzenesulfonanilide Derivatives for the Control of Crucifers Clubroot” (1996).

Tests used:
Assay type in all cases: functional
Plasmodiophora brassicae [1] = assay: Fungicidal activity against clubroot disease causing Plasmodiophora brassicae infested Brassica campestris under greenhouse condition assessed as disease incidence at 4 kg a.i/ha treated to soil measured after 40 to 50 days
Plasmodiophora brassicae [2] = assay: Fungicidal activity against clubroot disease causing Plasmodiophora brassicae infested Brassica campestris under greenhouse condition assessed as disease incidence at 2 kg a.i/ha treated to soil measured after 40 to 50 days
Plasmodiophora brassicae [3] = assay: Fungicidal activity against clubroot disease causing Plasmodiophora brassicae infested Brassica campestris under greenhouse condition assessed as disease incidence at 0.5 kg a.i/ha treated to soil measured after 40 to 50 days

SMILES: Cc1ccc(S(=O)(=O)Nc2ccc(C(F)(F)F)cc2)cc1
- Activity (Plasmodiophora brassicae [1]): 26%
- Activity (Plasmodiophora brassicae [2]): 26%
- Activity (Plasmodiophora brassicae [3]): 0%

SMILES: Cc1cc([N+](=O)[O-])ccc1NS(=O)(=O)c1cc(C(F)(F)F)ccc1Cl
- Activity (Plasmodiophora brassicae [1]): >91%
- Activity (Plasmodiophora brassicae [2]): >91%
- Activity (Plasmodiophora brassicae [3]): 0%

SMILES: Cc1cc([N+](=O)[O-])ccc1NS(=O)(=O)c1cccc(C(F)(F)F)c1
- Activity (Plasmodiophora brassicae [1]): >91%
- Activity (Plasmodiophora brassicae [2]): >91%
- Activity (Plasmodiophora brassicae [3]): 0%

SMILES: O=[N+]([O-])c1ccc(NS(=O)(=O)c2ccc(Cl)c(C(F)(F)F)c2)c(Cl)c1 [FLUSULFAMIDE]
- Activity (Plasmodiophora brassicae [1]): >91%
- Activity (Plasmodiophora brassicae [2]): >91%
- Activity (Plasmodiophora brassicae [3]): >91%
